Legend:
[1] = Metal reduction assay, Cu(II) to Cu(I) (BC/BCA indicator); type: biochemical; details: test compound 10 μM, Cu(II)-glycine 25 μM, PBS pH 7.4, 37° C., dark, one hour
Procedure: Metal Reduction Assays—Assays were performed using a 96-well microtiter plate (Costar, Mass.). Test compounds from the kynurenine pathway (10 μM) or, as a positive control, ascorbic acid (ASC, 10 μM) were co-incubated with either Fe(III)-citrate (25 μM) and the Fe(II) indicator bathophenanthroline disulfonic acid (BP, 250 μM), or Cu(II)-glycine (25 μM) and the Cu(I) indicator bathocuproine disulfonic acid (BC) or bicinchoninic acid (BCA, 250 μM). Incubations were conducted in PBS, pH 7.4, at 37° C. in the dark for one hour. Absorbencies were then measured using a plate reader (SPECTRAmax Plus, Molecular Devices, CA) at the appropriate wavelengths: Fe(II)-BP complex at 535 nm (the known molar absorption coefficient, M535,=22140 M^−1 cm^−1), Cu(I)-BC complex at 483 nm, M483=12250 M^−1cm^−1), or Cu(I)-BCA complex at 562 nm, M562=7700 M^−1cm^−1). In control samples, absorbance from the metal ion and indicator in the absence of test compound and the absorbance of test compound in the presence of metal ions, but in the absence of indicator, were determined. The absorbencies from these controls were deducted from those obtained in the presence of the test compound, metal and indicator to yield the net absorbance (ΔA). Fe(II) or Cu(I) concentrations (μM) were calculated according to the formula: C(μM)=ΔA*10^6/Mλ.
The compounds comprising the kynurenine pathway (FIG. 1) were assayed for their ability to reduce […] and Cu(II) (FIG. 2A). […] Values represent the mean±SD for three independent measurements.

[2] = Thiobarbituric acid-reactive substance (TBARS) assay for hydroxyl radical; type: biochemical; details: reaction with Cu(II)
Text: Although two Fenton chemistry substrates, hydrogen peroxide and reduced redox-active metal, are produced by 3-HK and 3-HAA, evidence of the hydroxyl radical was not detected using the thiobarbituric acid-reactive substance assay (Huang, X. et al., Biochem. 38:7609–7616 (1999)) (data not shown).

[3] = biological target: T1, recombinant human αB-crystallin (Homo sapiens, UniProt P02511); assay: Recombinant human αB-crystallin cross-linking (SDS-PAGE, silver stain); type: biochemical; details: 5 days 37° C. dark
T1 construct: gift of Dr. J. Liang, Brigham and Women's Hospital
T1 sequence (P02511 1-175): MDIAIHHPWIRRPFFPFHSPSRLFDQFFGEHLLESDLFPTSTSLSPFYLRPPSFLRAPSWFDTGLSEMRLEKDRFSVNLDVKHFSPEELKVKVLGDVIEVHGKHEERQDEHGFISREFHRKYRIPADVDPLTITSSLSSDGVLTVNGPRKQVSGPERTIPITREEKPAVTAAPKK
Procedure: Various solutions containing 3-HK (10 μM) or other kynurenine pathway metabolites (10 μM), Cu(II)-glycine (10 μM), Fe(III)-citrate (10 μM), and triethylenetetramine (TETA, 200 μM), were added in combinations as indicated. […] After incubation, aliquots of the total lens protein solutions were mixed with sample buffer containing 4% SDS and 5% β-mercaptoethanol, heated to 95° C. for 5 minutes, and loaded at 1 μg/lane on a 10–20% Tricine gel (Novex, San Diego, Calif.). […] For the experiments with recombinant αB-crystallin, aliquots of the protein solutions were mixed with sample running buffer containing NuPAGE sample buffer (Novex, San Diego, Calif.) and 10% β-mercaptoethanol, heated to 95° C. for 5 minutes, spun briefly, then loaded on a NuPAGE 4–12% Bis-Tris polyacrylamide gel at 375 ng/lane and electrophoresed with denaturing 3-(N-morpholino)propanesulfonic acid (MOPS)-SDS running buffer according to the manufacturer's recommendations.
To exclude the effects of other lens proteins on the observed findings in FIG. 5, these interactions with purified recombinant human αB-crystallin were examined.

[4] = Superoxide assay (dihydroethidium fluorometric); type: biochemical; details: test compound 10 μM
Procedure: Superoxide Assay—The fluorometric assay for superoxide is based upon the dihydroethidium (DHE, HYDROETHDNE™) method (Molecular Probes, Eugene, Oreg.) and used according to the manufacturer's instructions. DHE (1 mM) was freshly prepared in 100% argon-sparged DMSO. The reaction solutions were carried out in PBS, pH 7.4, under ambient gas conditions, in 96-well format plates and contained a test compound (KYN, 3-HK, 3-HAA, and ANA, each at 10 μM), DHE (100 μM), +/− Cu(II)-glycine (1 μM) and incubated at 37EC for 60 minutes. […] Abolition of the reading by co-incubation with superoxide dismutase (1000 U/ml) was used for establishing superoxide specificity. The fluorescent readings were recorded by a Packard FLUOROCOUNT™ fluorescent plate reader with a 510 nm excitation filter and 590 nm emission filter. Potassium superoxide dissolved in degassed DMSO was used as a positive control.

[5] = biological target: bovine serum albumin (BSA) (Bos taurus, UniProt P02769); details: co-incubation with Cu(II), 5 days 37° C. dark
bovine serum albumin (BSA), sequence (P02769 25-607): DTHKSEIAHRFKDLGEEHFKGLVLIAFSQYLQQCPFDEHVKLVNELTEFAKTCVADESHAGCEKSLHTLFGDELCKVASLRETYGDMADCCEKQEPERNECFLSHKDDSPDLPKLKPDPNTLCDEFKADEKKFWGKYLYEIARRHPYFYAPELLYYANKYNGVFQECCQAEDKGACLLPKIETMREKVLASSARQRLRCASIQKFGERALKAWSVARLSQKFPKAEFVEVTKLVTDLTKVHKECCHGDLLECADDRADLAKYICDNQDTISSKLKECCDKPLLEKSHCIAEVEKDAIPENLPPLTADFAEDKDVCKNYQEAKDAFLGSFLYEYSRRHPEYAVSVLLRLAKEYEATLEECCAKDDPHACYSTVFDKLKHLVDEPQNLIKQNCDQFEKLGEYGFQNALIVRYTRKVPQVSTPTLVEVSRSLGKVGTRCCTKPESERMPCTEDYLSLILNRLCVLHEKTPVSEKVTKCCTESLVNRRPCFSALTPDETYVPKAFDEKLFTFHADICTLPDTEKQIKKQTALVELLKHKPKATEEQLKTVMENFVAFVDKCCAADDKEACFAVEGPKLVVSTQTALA

Compound: Nc1c(O)cccc1C(=O)CC(N)C(=O)O (stereo not shown) [3-HK, 3-hydroxykynurenine]
- reduction of Cu(II) [1]: 100%
- evidence of the hydroxyl radical [2]: not detected
- αB-crystallin cross-linking ([3]; metabolite 10 μM alone): apparent dimeric and higher order oligomers were observed
- αB-crystallin cross-linking with Cu(II) ([3]; metabolite 10 μM and Cu(II) 10 μM): monomeric and apparent dimeric αB-crystallin species were depleted and a prominent high molecular weight smear was observed
- effect of Cu(II) on superoxide generation ([4]; Cu(II)-glycine 1 μM): did not promote
- superoxide production ([4]; ambient oxygen, dark, 60 minutes): negligible
- BSA protein depletion with Cu(II) [5]: the monomer was depleted without emergence of apparent detectable cross-linked species
